# Data taken from patent publication US9480755B2, “Pharmaceutical composition comprising dapagliflozin and cyclodextrin” (ratiopharm GmbH, priority 2011, dated 2016).
# Like-named read-outs stand apart in the source and are kept apart here.
# Assays:
# [1] = deionised water; for Dissolved Dapagliflozin: 25 ± 2° C.
# Protocol: The effect of cyclodextrins on the aqueous solubility of dapagliflozin was studied in deionised water at 25±2° C. The solubilizing effect was studied by preparing samples having a cyclodextrin concentration in the range of 1 to 15 wt. %.
# The following cyclodextrins were used: • b-cyclodextrin (BCD): CYL-2518/2 (Wacker Chemie GmbH) • (2-hydroxy)propyl-b-cyclodextrin (HPBCD): E0062 (Roquette Frères) • sulfobutylether-b-cyclodextrin (SBEBCD): 47K040508 (CycloLab)
# [2] = Protocol: Literatural examples indicate that the effectiveness of complex formation may be increased upon the addition of hydroxycarboxylic acids, especially citric acid in case the complex forming cyclodextrin or its complex is subject to aggregation. Often this is the case when parent cyclodextrins are applied. […] As a proof of concept, representative isotherm data were determined in the presence of citric acid (added in equimolar ratio with the pharmacon) and compared to the original dissolved concentrations (Table 2).
smiles,measurement,setting,value
"CCOc1ccc(Cc2cc([C@@H]3O[C@H](CO)[C@@H](O)[C@H](O)[C@H]3O)ccc2Cl)cc1 [dapagliflozin, (2S,3R,4R,5S,6R)-2-[4-chloro-3-(4-ethoxybenzyl)phenyl]-6-(hydroxymethyl)-tetrahydro-2H-pyran-3,4,5-triol]",Dissolved Dapagliflozin,[1]; BCD 0.5 wt. %,3.3 mg/mL
same,Dissolved Dapagliflozin,[1]; BCD 1.0 wt. %,4.7 mg/mL
same,Dissolved Dapagliflozin,[1]; BCD 1.5 wt. %,6.3 mg/mL
same,Dissolved Dapagliflozin,[1]; BCD 2.0 wt. %,7.7 mg/mL
same,Dissolved Dapagliflozin,[1]; HPBCD 1.0 wt. %,4.4 mg/mL
same,Dissolved Dapagliflozin,[1]; HPBCD 2.0 wt. %,7.2 mg/mL
same,Dissolved Dapagliflozin,[1]; HPBCD 2.5 wt. %,8.6 mg/mL
same,Dissolved Dapagliflozin,[1]; HPBCD 3.0 wt. %,9.7 mg/mL
same,Dissolved Dapagliflozin,[1]; HPBCD 4.0 wt. %,12.5 mg/mL
same,Dissolved Dapagliflozin,[1]; HPBCD 5.0 wt. %,14.4 mg/mL
same,Dissolved Dapagliflozin,[1]; HPBCD 10.0 wt. %,14.1 mg/mL
same,Dissolved Dapagliflozin,[1]; HPBCD 15.0 wt. %,14.0 mg/mL
same,Dissolved Dapagliflozin,[1]; HPGCD 1.0 wt. %,4.2 mg/mL
same,Dissolved Dapagliflozin,[1]; HPGCD 5.0 wt. %,11.3 mg/mL
same,Dissolved Dapagliflozin,[1]; HPGCD 10.0 wt. %,14.9 mg/mL
same,Dissolved Dapagliflozin,[1]; HPGCD 15.0 wt. %,14.4 mg/mL
same,Dissolved Dapagliflozin,[1]; SBEBCD 1.0 wt. %,3.8 mg/mL
same,Dissolved Dapagliflozin,[1]; SBEBCD 5.0 wt. %,10.7 mg/mL
same,Dissolved Dapagliflozin,[1]; SBEBCD 10.0 wt. %,13.1 mg/mL
same,Dissolved Dapagliflozin,[1]; SBEBCD 15.0 wt. %,12.8 mg/mL
same,Dissolved Dapagliflozin,[1]; no cyclodextrin,1.6 mg/mL
same,effect of the interactions with cyclodextrins on solubility,[1]; cyclodextrin-concentration dependent,significant solubility enhancement
same,Dissolved Dapagliflozin,[2]; HPBCD 1.0% + 28 mg citric acid (equimolar with the drug),4.1 mg/mL
same,Dissolved Dapagliflozin,[2]; HPBCD 2.5% + 28 mg citric acid (equimolar with the drug),8.1 mg/mL
same,Dissolved Dapagliflozin,[2]; HPBCD 5.0% + 28 mg citric acid (equimolar with the drug),14.3 mg/mL
